Results on eight compounds are retold here after patent US12589169B2, “Compound and MRI contrast agent containing same” (KYUNGPOOK NATIONAL UNIVERSITY INDUSTRY-ACADEMIC COOPERATION …, priority 2020, dated 2026).

SMILES strings stand for the structures.

Series [1] can be described thus: magnetic relaxation rates (MRI contrast effect). The conditions noted are these: magnetic relaxation rate; field strength not stated for Table 1. In kind it is physicochemical. On the procedure: In order to examine the MRI contrast effects of the compounds (Gd-suc, Gd-glu) and commercially available MRI contrast agents according to Examples of the present invention, the magnetic relaxation rates and lipophilicity were analyzed, and the results are shown in Table 1 below.
The magnetic relaxation rate (mM^−ls^−1) is a parameter indicating contrast efficiency per unit concentration, and in the case of a T1 contrast agent, the r2/r1 ratio is known to have a value of 0.5 to 1.5.

The subject of series [2] is AML12 cell line. The experiment in a line: in vitro cell-viability test (CCK method). In kind it is cell-based. Conditions: AML12 normal hepatocytes, 24 hours; FIG. 16. On the procedure:
In order to confirm the presence or absence of cytotoxicity in normal hepatocytes, Gd-suc (i.e., a compound according to an embodiment of the present invention) and Primovist and Multihance (i.e., commercially available liver contrast agents) were treated on the AML12 cell line at various concentrations, and cell viability after 24 hours was analyzed by a known CCK method, and the results are shown in FIG. 16.

For series [3], the system named is Balb/C mice. The experiment in a line: in vivo MRI contrast effect (abdominal T1 weighted images). The conditions noted are these: 0.1 mmol/kg, 4.7 T, FIG. 14. As to the method: The liver-specific T1 contrast effect of the compounds (Gd-suc, Gd-glu) according to embodiments of the present invention and Primovist, a commercially available liver contrast agent, was evaluated in small animals (Balb/C mice, male, 5 w, 25 g, 0.1 mmol/kg) and confirmed through abdominal T1 weighted images (Bruker, 4.7 T), and the results are shown in FIGS. 12 to 15.

Turning to `O=C([O-])CN1CCN(CC(=O)[O-])CCN([C@H](CO)[C@H](O)CO)CCN(CC(=O)[O-])CC1.[Gd+3]` (racemic) [Gadovist], in series [1], the r1 was 4.12 ± 0.028 mM^−ls^−1 and the r2 came to 4.60 ± 0.025 mM^−ls^−1.

With `CNC[C@H](O)[C@@H](O)[C@H](O)[C@H](O)CO.O=C([O-])CN1CCN(CC(=O)[O-])CCN(CC(=O)O)CCN(CC(=O)[O-])CC1.[Gd+3]` [Dotarem, Gd-DOTA], in series [1], the r1 was 4.19 ± 0.014 mM^−ls^−1 and the r2 was determined as 4.75 ± 0.016 mM^−ls^−1.

In series [1], `CNC(=O)CN(CCN(CCN(CC(=O)[O-])CC(=O)NC)CC(=O)[O-])CC(=O)[O-].[Gd+3]` [Omniscan] returned a r1 of 3.58 ± 0.014 mM^−ls^−1 and a r2 of 4.46 ± 0.024 mM^−ls^−1.

In series [1], `CC(O)CN1CCN(CC(=O)[O-])CCN(CC(=O)[O-])CCN(CC(=O)[O-])CC1.[Gd+3]` (stereo not shown) [Prohance] came in with a r1 of 3.58 ± 0.017 mM^−ls^−1 and a r2 of 4.58 ± 0.071 mM^−ls^−1.

As for `CNC[C@H](O)[C@@H](O)[C@H](O)[C@H](O)CO.CNC[C@H](O)[C@@H](O)[C@H](O)[C@H](O)CO.O=C([O-])CN(CCN(CC(=O)[O-])CC(=O)O)CCN(CC(=O)[O-])CC(=O)O.[Gd+3]` [Magnevist], in series [1], the r1 was 3.57 ± 0.007 mM^−ls^−1 and the r2 amounted to 4.95 ± 0.18 mM^−ls^−1.

For `CCOc1ccc(CC(CN(CCN(CC(=O)[O-])CC(=O)[O-])CC(=O)[O-])N(CC(=O)[O-])CC(=O)[O-])cc1.[Gd+3].[Na+].[Na+]` (stereo not shown) [Primovist], in series [1], the r1 stood at 6.51 ± 0.040 mM^−ls^−1 and the r2 was found to be 7.31 ± 0.42 mM^−ls^−1. Further, the cytotoxicity result in series [2] is “significant cytotoxicity”.

Take `CCOc1ccc(CN2CCN(CC(=O)[O-])CCN(C(CCC(=O)[O-])C(=O)[O-])CCN(CC(=O)[O-])CC2)cc1.[Gd+3]` (stereo not shown) [Gd-glu]: the “contrast enhancing effect in the gall bladder” value in series [3] is “exhibited a contrast enhancing effect in the gall bladder”. In series [1], this compound registered a r1 of 8.41 ± 0.084 mM^−ls^−1 and a r2 of 9.92 ± 0.081 mM^−ls^−1.

As for `CNC[C@H](O)[C@@H](O)[C@H](O)[C@H](O)CO.CNC[C@H](O)[C@@H](O)[C@H](O)[C@H](O)CO.O=C([O-])CN(CCN(CC(=O)[O-])CC(=O)O)CCN(CC(=O)O)C(COCc1ccccc1)C(=O)[O-].[Gd+3]` (stereo not shown) [Multihance], in series [1], the r1 was 5.09 ± 0.015 mM^−ls^−1 and the r2 stood at 6.79 ± 0.38 mM^−ls^−1. In series [2], the cytotoxicity entry is “significant cytotoxicity”.
